Values of other authors, collected in patent US20240423930A1, “PHARMACEUTICAL COMPOSITION AND METHOD FOR TREATING CARDIOVASCULAR DISEASES” (priority 2020, published 2024).

Tested on: furin
Details: ectopic expression of the inhibitor; in vitro digestion assay

- blocked TGF-beta1 processing mediated by endogenous enzymes: 80%
Substance: alpha (1)-antitrypsin Portland [alpha(1)-AT-PDX]
